Read-outs that look alike come from different tables or passages of the source.
Tests used:
[1] = test system: B16V mouse melanoma cells; test: Depigmenting effect on melanoma cell cultures (inhibition of pigmentation); type: cell-based; conditions: read-out: IC50 (concentration at which pigmentation is inhibited by 50%)
Experimental: B16V mouse melanoma cells are disseminated in a 96-well microtitre plate in a concentration of 5×10^3 cells/well. After cultivation for 24 h at 37° C. and 5% CO2 in RPMI medium, enriched with 10% foetal calf serum, various concentrations of the test substances and 0.3 mM tyrosine and 10 nM α-MSH (α-melanocyte stimulating hormone) are added and incubated for a further 96 h. The maximum concentration of the test substances used corresponds to 0.1 times the value of the IC20 value of the cytotoxicity assay. Standards are incubated with kojic acid in concentrations of 0.01 mM, 0.1 mM and 1 mM in addition to tyrosine and α-MSH. Only tyrosine and α-MSH are added to the controls. After incubation, sodium lauryl sulfate and sodium hydroxide solution (final concentrations: 1 mM and 1 M respectively) are added to the culture medium and the absorption (A) is measured after 3 h at 400 nm.
The inhibition of pigmentation in the presence of the test compounds or kojic acid was calculated using the following equation: Inhibition of pigmentation (%)=100−[(Atest compound/Acontrol)×100] wherein
Atest compound=absorption of the wells with test substance and with cells
Acontrol=absorption of the wells without test substance, but with cells
From the inhibition of pigmentation (%) in a series of dilutions of test compounds, the IC50 for each test compound is calculated. This is the concentration of a test compound at which pigmentation is inhibited by 50%.

Pigmented pig skin = test: Depigmenting effect on ex vivo skin (melanin granules, Fontana-Masson stain, image analysis); type: tissue-based; conditions: applied topically, 6 days
Experimental: Pigmented pig skin was excised from animals (slaughtered for meat production; the pig skin model included the subcutis fat layer as described in EP 1 939 27), cut into 4×4×3 mm pieces (length×width×height) and placed in culture at the air-liquid interface on a sterilized cotton pad soaked with 5 ml of customized DMEM (Dulbecco's Modified Eagle Medium). Assays were started 24 h after sample acclimatization at 37° C., 5% CO2. O/W emulsions (as described in more detail below) without (=control) and with the test compounds, respectively, were applied topically and incubated for 6 days. Histological sections were prepared and melanin granules stained by Fontana-Masson technique. The granules were quantified by image analysis.
The O/W emulsions used had the following composition:
Phases A and B are heated to 70° C. separately. Pemulen TR1 as well as Ultrez-21 are dispersed in phase B when heated to 70° C. Phase B/C is added to phase A by mixing with an Ultra Turrax, followed by emulsifying. Phase D is slowly added to phase A/B/C using a paddle mixer and a pH 5.5-6 is adjusted. The formulation is cooled down while mixing with a paddle mixer. Phase E is prepared by dissolving one or more compounds of formula (I) in Hydrolite-5. Subsequently, phase E is added to the mixture of phase A-D.

[2] = B16V cells, 0.3 mM tyrosine and 10 nM α-MSH, 96 h incubation, absorption at 400 nm

`COc1ccccc1NC(=O)OC1CCCCC1C(C)C` (centres unmarked) [BIO1744, (2-Methoxy-phenyl)-carbamic acid 2-isopropyl-cyclohexyl ester] gave an IC50 [1, 2] of 18.3 µM.

`CCC(C)NC(=O)OC1CC(C)CC(C)(C)C1` (centres unmarked) [BIO1844, sec-Butyl-carbamic acid 3,3,5-trimethyl-cyclohexyl ester] gave an IC50 [1, 2] of 219 µM.

`C=C(C)C1CCC(C)CC1OC(=O)NCC` (centres unmarked) [BIO1551, Ethyl-carbamic acid 2-isopropenyl-5-methyl-cyclohexyl ester] was tested, and the IC50 [1, 2] was 40.9 µM.

`CCN(CC)C(=O)OC1CCCCC1C(C)C` (centres unmarked) [BIO1694, Diethyl-carbamic acid 2-isopropyl-cyclohexyl ester] showed an IC50 [1, 2] of 38.5 µM.

In the case of `CCNC(=O)OC1CC(C)CC(C)(C)C1` (centres unmarked) [BIO1572, Ethyl-carbamic acid 3,3,5-trimethyl-cyclohexyl ester], the IC50 ([1]; 96 h) is reported as 63.1 µM.

`CCCCNC(=O)OC1CC(C)CC(C)(C)C1` (centres unmarked) [BIO1616, n-Butyl-carbamic acid 3,3,5-trimethyl-cyclohexyl ester] gave an IC50 [1, 2] of 10.9 µM.

`CC1CCCC(OC(=O)Nc2ccccc2O)C1C` (centres unmarked) [BIO1643, (2-Hydroxy-phenyl)-carbamic acid 2,3-dimethyl-cyclohexyl ester] was tested, and the IC50 [1, 2] was 0.7 µM and the “Melanin score vs. Control” value (Pigmented pig skin; 0.5 wt.% in O/W emulsion) was −26%.

In the case of `OC[C@H]1O[C@@H](Oc2ccc(O)cc2)[C@H](O)[C@@H](O)[C@@H]1O` [beta-Arbutin, reference compound], the IC50 [1, 2] is reported as 67 µM.

`Cc1ccc(NC(=O)OC2CCCCC2C(C)C)cc1` (centres unmarked) [BIO1824, p-Tolyl-carbamic acid 2-isopropyl-cyclohexyl ester] was tested, and the IC50 [1, 2] was 4.7 µM and the “Melanin score vs. Control” value (Pigmented pig skin; 1 wt.% in O/W emulsion) was −44%.

`CCCCCCNC(=O)OC1CC(C)CC(C)(C)C1` (centres unmarked) [BIO1850, n-Hexyl-carbamic acid 3,3,5-trimethyl-cyclohexyl ester] gave an IC50 [1, 2] of 14.3 µM.

`C=C(C)C1CCC(C)CC1OC(=O)NCCCC` (centres unmarked) [BIO1615, Butyl-carbamic acid 2-isopropenyl-5-methyl-cyclohexyl ester] showed an IC50 [1, 2] of 43 µM.

Molecule `CCNC(=O)OC1CC2CCC1(C)C2(C)C` (centres unmarked) [BIO1573, Ethyl-carbamic acid 1,7,7-trimethyl-bicyclo[2.2.1]hept-2-yl ester] has an IC50 ([1]; 96 h) of 74.9 µM.

Molecule `CC(C)(C)C1CCCCC1OC(=O)Nc1ccccc1` (centres unmarked) [BIO1740, Phenyl-carbamic acid 2-tert-butyl-cyclohexyl ester] has an IC50 [1, 2] of 5.5 µM.

Work on `CCCCNC(=O)OC1CC(C)CC(C)C1` (centres unmarked) [BIO1840, n-Butyl-carbamic acid 3,5-dimethyl-cyclohexyl ester] yielded an IC50 [1, 2] of 89.5 µM.

`CC(C)C1CCCCC1OC(=O)Nc1ccccc1O` (centres unmarked) [BIO1646, (2-Hydroxy-phenyl)-carbamic acid 2-isopropyl-cyclohexyl ester] was tested, and the IC50 [1, 2] was 4.7 µM.

For `CCNC(=O)OC1CC(C)CC(C)C1` (centres unmarked) [BIO1561, Ethyl-carbamic acid 3,5-dimethyl-cyclohexyl ester], the IC50 [1, 2] was 32.7 µM and the “Melanin score vs. Control” value (Pigmented pig skin; 1 wt.% in O/W emulsion) was −26%.

Molecule `CCCCNC(=O)OC1C(C)CCC(C)C1C` (centres unmarked) [BIO1617, n-Butyl-carbamic acid 2,3,6-trimethyl-cyclohexyl ester] has an IC50 [1, 2] of 15.4 µM.

For `COc1ccccc1NC(=O)OC1CC(C)CC(C)(C)C1` (centres unmarked) [BIO1703, (2-Methoxy-phenyl)-carbamic acid 3,3,5-trimethyl-cyclohexyl ester], the IC50 [1, 2] was 25.1 µM and the “Melanin score vs. Control” value (Pigmented pig skin; 0.5 wt.% in O/W emulsion) was −37%.

For `CC1CC(OC(=O)Nc2ccccc2O)CC(C)(C)C1` (centres unmarked) [BIO1642, (2-Hydroxy-phenyl)-carbamic acid 3,3,5-trimethyl-cyclohexyl ester], the IC50 [1, 2] was 5.6 µM.

`CC1CCCCC1NC(=O)OC1CCC(C(C)(C)C)CC1` (centres unmarked) [BIO1690, (2-Methyl-cyclohexyl)-carbamic acid 4-tert-butyl-cyclohexyl ester] was tested, and the IC50 [1, 2] was 10.9 µM.

Molecule `COc1ccccc1NC(=O)OC1C(C)CCC(C)C1C` (centres unmarked) [BIO1701, (2-Methoxy-phenyl)-carbamic acid 2,3,6-trimethyl-cyclohexyl ester] has an IC50 [1, 2] of 10.2 µM.

`CCCCNC(=O)OC1CCCC(C)C1C` (centres unmarked) [BIO1842, Butyl-carbamic acid 2,3-dimethyl-cyclohexyl ester] was tested, and the IC50 [1, 2] was 94.1 µM.

For `CCCCNC(=O)OC1CCCCC1C(C)C` (centres unmarked) [BIO1841, Butyl-carbamic acid 2-isopropyl-cyclohexyl ester], the IC50 [1, 2] was 28.5 µM.

For `CC1CC(C)CC(OC(=O)Nc2ccccc2)C1` (centres unmarked) [BIO1685, Phenyl-carbamic acid 3,5-dimethyl-cyclohexyl ester], the IC50 [1, 2] was 18.9 µM.

In the case of `Cc1ccc(NC(=O)OC2CCCC(C)C2)cc1` (centres unmarked) [BIO1825, p-Tolyl-carbamic acid 3-methyl-cyclohexyl ester], the IC50 [1, 2] is reported as 72.5 µM.

In the case of `CCCC1CCC(OC(=O)NCCCC(OCC)OCC)CC1` (centres unmarked) [BIO1707, (4,4-Diethoxy-butyl)-carbamic acid 4-propyl-cyclohexyl ester], the IC50 [1, 2] is reported as 12.7 µM.

Work on `Cc1ccc(NC(=O)OC2CC(C)CC(C)C2)cc1` (centres unmarked) [BIO1822, p-Tolyl-carbamic acid 3,5-dimethyl-cyclohexyl ester] yielded an IC50 [1, 2] of 52.5 µM.

For `CCN(CC)C(=O)OC1C(C)CCC(C)C1C` (centres unmarked) [BIO1692, Diethyl-carbamic acid 2,3,6-trimethyl-cyclohexyl ester], the IC50 [1, 2] was 41.7 µM.

`O=C(Nc1ccccc1)OC1CCCCC1` [BIO1741, Phenyl-carbamic acid cyclohexyl ester] was tested, and the IC50 [1, 2] was 12.9 µM and the “Melanin score vs. Control” value (Pigmented pig skin; 1 wt.% in O/W emulsion) was −28%.

`COCCCNC(=O)OC1CC(C)CC(C)(C)C1` (centres unmarked) [BIO1574, (3-Methoxy-propyl)-carbamic acid 3,3,5-trimethyl-cyclohexyl ester] showed an IC50 ([1]; 96 h) of 9.5 µM.

Source: patent publication US9072676B2, “Cyclohexyl carbamate compounds as skin and/or hair lightening actives” (SYMRISE AG, priority 2010, dated 2015)
